# Assay results reported in patent US11207430B2, “Gadolinium expressed lipid nanoparticles for magnetic resonance imaging” (University of Washington, priority 2009, dated 2021).
# Entries after “also recorded” stand apart in the source; their conditions may differ.
# How the values were obtained:
# vasculature = experiment: Rat vascular MRI study (DCE MRI after intravenous injection); format: in vivo; conditions: 0.01 mmol/kg nanoparticles or 0.05 mmol/kg OMNISCAN, 5 min and 14-15 min
# Description: In vivo imaging of the rat using Gd-DTPA-lipid nanoparticles for dynamic contrast enhanced (DCE) MRI was performed in a 3.0T MR scanner. The rats (SD) was anesthetized with inhaled isofluorane (1-2%) and closely monitored during the experiments. A pre-contrast image of the rat was recorded to determine proper location, orientation and fine-tune the imaging parameters. The animal was removed from the MR scanner and injected with […] of indicated Gd contrast media through femoral vein. The images were recorded on a Signa […] Scanner using a surface coil 12×12 inch.
# [1] = clinical use; cited from earlier work
# lymph nodes = experiment: Primate lymphatic MRI study (DCE MRI after subcutaneous injection); format: in vivo, M. Nemestrina; conditions: animals injected subcutaneously
# Description: In vivo imaging of the lymph nodes using Gd-DTPA-lipid nanoparticles for dynamic contrast enhanced (DCE) MRI was performed in a 1.5T MR scanner. The pigtailed macaque (M. Nemestrina) was anesthetized with inhaled isofluorane (1-2%) and closely monitored during the experiments. A pre-contrast image of the primate was recorded to determine proper lymph node location and fine-tune the imaging parameters. The animal was removed from the MR scanner and injected subcutaneously at four sites. […] The total dose of Gd is estimated to be 24.4 μmol/kg for the primate studies.
smiles,measurement,setting,value
"CNC(=O)CN(CCN(CCN(CC(=O)[O-])CC(=O)NC)CC(=O)[O-])CC(=O)[O-].[Gd+3] [OMNISCAN, Gd-DTPA-BMA]",Localization of contrast enhancement,vasculature,"diffused throughout and does not localize in the vasculature, well-perfused tissues, or the lymph nodes; also recorded: diffuse contrast localization with no vascular definition"
same,Clearance time,[1],cleared within a few minutes
same,Time within which signal in lymphatic system dissipates,lymph nodes,≤ 20 min
